Source: publication PMC6452685, “Lysyl-tRNA synthetase as a drug target in malaria and cryptosporidiosis” (Proceedings of the National Academy of Sciences of the …, 2019)

Legend:
[1] = target: PfKRS1 (Plasmodium falciparum, UniProt Q8IDJ8); assay: PfKRS1 hit discovery high-throughput screen (Kinase-Glo); type: biochemical; set-up: recombinant PfKRS1 (77–583 and 80–583); 6xHis (N); made in house; host or cells: E. coli Rosetta BL21(DE3), vector pAVA0421; conditions: single point 7.5 µM
Method: By using the luciferase ATP consumption (Kinase-Glo) assay platform with sub-Km substrate concentrations (thus biasing the assay toward identifying ATP-competitive inhibitors), the GlaxoSmithKline malaria actives set of ∼13,000 compounds (the Tres Cantos Antimalarial Set) ([19]) was screened against recombinant PfKRS1, leading to the discovery of a PfKRS1 inhibitor, compound 2 (Fig. 1). […] Compound 2 suffered from high metabolic instability (CLi > 50 mL⋅min^−1⋅g^−1 in mouse liver microsomes); however, in contrast to cladosporin 1, it was chemically tractable. […]
Assays were performed in 384-well format i n buffer (as des cri bed i n Tabl e S3), 60 µM lysine, and 75 nM PfKRS1. Compounds were initially screened at single point concentrations of 7.5 µM and hits were re peated three times. Plates were incubated for 180 mi ns at 37°C after a ddition of compounds. Reactions were terminated by the addi ti on of Ki nase-Glo® reagent and read on an E nVi si on pl ate reader (Perki nEl mer, W al tham, MA). […]
Us i ng the EnzChek as s ay pl atform the I C50 value for compound 5 was determined at saturating concentrati ons of both s ubs trates , 0. […] Assay ready plates containing different concent rations of compound 5 were prepa red usi ng an Ec ho® 5 50 acousti c di spenser (Labcyte Inc.). […]

[2] = Hepatocyte stability, mouse; type: in vitro ADME
Method: SUPPLEMENTARY INFORMATION where V (ml/mg protein) is the incubation volume/mg protein added (0.5) and microsomal protein yield is taken as being 52.5 mg protein per g liver. Verapami l (0. 5 µ M ) w as us ed as a pos i t i v e cont rol to confirm ac ceptable assay performance. Ex peri ments were performed us i ng a s i ngl e ti me-cours e […]
4.5 He pat ocy t e s t abilit y
Cryopreserved hepatocytes were used to take non-CYP mediated Phase I and Phase II enzymes into […]
than those determined using li v e r mi crosomes or other subcellular liver fractions and could be mo re predi ct i v e of a met abol i c rat e det ermi ned in vivo.
Cryopreserved mouse (batch MC539) and huma n (batch HU E50H) hepatocytes were supplied by ThermoFi sher Sci enti fi c, Pai sl ey, UK and Xenotech, LLC, respectively. Cryopreserved hepatocytes were rapidly thawed in a pre-heat ed w at er bat h at 37 °C before ad di ng to 50 ml of pre-warmed CHRM medi a (ThermoFi sher Sci enti fi c, Paisley, UK) and mi xed gentl y. […] […] 5 mi l li on v i abl e cel l s /ml i n s uppl emented W ME. Onl y s us pens i ons whi ch ac hi ev ed >80% pos t-thaw viability were us ed i n ex peri ment s . […]
DMSO and 0.25 million cells/ml. […]

[3] = system: P. falciparum stage V gametocytes; assay: P. falciparum stage V gametocytes; type: cell-based; conditions: Plasmodium falciparum
Method: Thi s is a modification of the previously reported method (13). Asexual P. falciparum paras i t es (NF54) from a cl one G 3 w ere g row n at 5% hemat ocri t i n O+ human ery t hrocy t es i n s erum-contai ni ng compl ete medi a (RPMI 1640, g entami ci n 0. 05 mg /ml , hy pox anthi ne 0. 05 mg/ml, HEPES 38.4 mM , sodium bicarbonate 0.2% [w/v], D-glucose 0.2% [w/v], sodium hydroxide 3.4 mM, 11.9% [w/v] heat-inactivated human serum [O+] and at 37 °C un de r l ow-ox y g en con di t i ons (3% O2, 5% C O2, and 92% N2) and a paras i temi a between 0. 5% and 3%. Ri ng-stage parasites were synchronized at 3%
paras i t aemi a (d-6) w i t h 5% (w /v ) D-Sorbi tol . On day −4, 45ml of compl ete medi a was added to the
cul ture fl as k to s tres s vi a hematocri t drop now at 2. 5%. The o n d-3 an d d-2 onl y 45 ml o f the medi a
was substituted for fres h medi a.

[4] = system: Plasmodium falciparum; assay: In vitro parasite reduction ratio (PRR) assay; type: cell-based; conditions: 10 x EC50, 120 h
Method: 3.5 In vitro parasite reduction ratio (PRR) assay with Pl as modi um fal c i p aru m (G S K) The in vitro Parasite Rate Reduction assay (PRR) was conducted as previously described (8). […] Drug was renewed daily over the entire treatment period. Samples of paras i t es w ere t ak en from t he t reat ed cul t ure at i nt erv al s (24, 48, 72, 96 and 120 h t i me poi nt s ), drug was washed out and drug-free paras i t es w ere cul tured i n 96-well plates by adding fre s h e ry t hrocy t e s
and new cul ture medi a. T he n umber of vi abl e parasi tes was determi ned by the seri al di l uti on technique. Four indepe ndent serial dilutions were done with each sample to correct for experimental

[5] = Toxicity in mice at higher doses; type: in vivo; conditions: higher doses (50 mg/kg orally)
[6] = Intrinsic clearance in human liver microsomes; type: in vitro ADME

PfKRS1, sequence (Q8IDJ8 77-583): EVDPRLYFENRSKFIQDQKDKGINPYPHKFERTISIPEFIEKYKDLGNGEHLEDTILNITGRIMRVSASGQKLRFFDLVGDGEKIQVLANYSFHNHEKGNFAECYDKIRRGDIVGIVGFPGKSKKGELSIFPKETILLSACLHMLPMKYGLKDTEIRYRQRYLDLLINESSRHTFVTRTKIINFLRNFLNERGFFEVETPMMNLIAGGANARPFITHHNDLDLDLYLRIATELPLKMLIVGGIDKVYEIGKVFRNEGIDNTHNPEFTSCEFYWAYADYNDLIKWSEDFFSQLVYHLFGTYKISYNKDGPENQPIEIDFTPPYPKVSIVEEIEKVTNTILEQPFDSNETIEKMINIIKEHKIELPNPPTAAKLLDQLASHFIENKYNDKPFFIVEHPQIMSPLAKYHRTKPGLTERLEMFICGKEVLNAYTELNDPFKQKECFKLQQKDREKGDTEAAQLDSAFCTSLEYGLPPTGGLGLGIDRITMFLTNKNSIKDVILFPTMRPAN

SMILES	inhibition of PfKRS1 in high-throughput screen [1]	Hepatocyte stability CLint [2]	EC50 [3] [µM]	rate of killing (PRR assay) [4]	toxicity in mice [5]	Microsomal stability CLint [6] [mL⋅min^−1⋅g^−1]
O=C(NCC1CCCCC1)c1cc(=O)c2ccccc2o1 [Compound 2]	71-91%	–	–	–	–	–
O=C(NCC1(O)CCC(F)(F)CC1)c1cc(=O)c2cc(F)ccc2o1 [Compound 5]	–	0.5 (mouse), <0.5 (human) mL⋅min^−1⋅g^−1	9.9	slow rate of killing	showed toxicity	< 0.5
